The test system of series [1] is primary cultured human CF epithelia. As to the kind of experiment: ASL viscosity (FITC-dextran FRAP). It is filed as cell-based. To be noted: AmB 2 μM, 48 h. As to the method: ASL viscosity in airway epithelial cultures was determined (7, 25). Small diameter primary cultured epithelia were used for this experiment (0.33 cm^2). The apical surface was not washed for at least 2 weeks before study. Cultured epithelia were treated with 2 µM AmB administered in perfluorocarbon (FC-72, Sigma) for 48 hours. FITC-dextran (70 kD, Sigma) was then administered to the apical surface of epithelia as a dry powder 2 hrs before measurement of viscosity. FRAP was assayed in a humidified chamber at 37° C. using a Zeiss LSM 510 μMETA microscope. Images were acquired until maximal recovery was reached. At least 6 recovery curves from different locations in each culture were acquired and averaged to obtain data for one epithelial culture. The time constant […] was calculated by regression analysis from fluorescence recovery curves. Viscosity is expressed relative to the time constant of saline (τASL/τsaline).

A further series relates to CuFi-1 epithelia. As to the kind of experiment: Lactate dehydrogenase (LDH) cytotoxicity assay. It is filed as cell-based, human. The note with it: single AmB treatment, increasing time periods. As to the method: Small diameter CuFi-1 cultured epithelia were used for this experiment (0.33 cm^2). An LDH Cytotoxicity Assay Kit (Cayman Chemical) was used to determine if AmB is toxic to CuFi-1 airway epithelia. Prior to treatment, media was removed from the basolateral side of epithelia and replaced with 500 µL of fresh USG media. Cultured epithelia were then treated with FC-72 vehicle, 2 and 50 μM AmB administered in perfluorocarbon (FC-72, Sigma) for 48 hours, 7 days, or 28 days. 48 hours prior to the end of each experiment time frame, basolateral media was changed again and […] of 10% Triton X-100 solution was added to the apical surface to elicit maximum release. On the day of the experiment, assay reagents were prepared according to kit instructions and 500 µL of USG media was added to three empty wells in a 24-well plate for background control. Culture inserts were removed from the wells and 250 µL of LDH Reaction Solution was added to each well. The plate was then gently shaken on an orbital shaker for 30 minutes at 37° C. Absorbance was read at 490 nm using a plate reader. % cytotoxicity was calculated as follows: […]

In series [2] the test system is protein ion channel-deficient yeast. To be noted: cited from earlier work.
Series [3] has as its system CuFi-4 (G551D/ΔF508) epithelia. As to the kind of experiment: ASL pH in cultured CF airway epithelia (SNARF-dextran). It is filed as cell-based, human. As for the experimental part: (§1) Small diameter NuLi, CuFi, and primary cultured epithelia were used for this experiment (0.33 cm^2). The ratiometric pH indicator SNARF-conjugated dextran (Molecular Probes) was used to measure ASL pH. SNARF powder was suspended via sonication in perfluorocarbon (FC-72, Sigma) and distributed onto the apical surface. ASL pH was measured 2 hr later (3, 4, 25). SNARF was excited at 488 nm and emission was recorded at 580 nm and 640 nm using a Zeiss LSM 800 microscope at 40× water immersion for cell line cultures and a Zeiss LSM 510 microscope for primary cultures. To generate a standard curve for pH determination, SNARF was dissolved in colorless pH standards and fluorescence ratios were converted to pH.
(§2) Agents tested in this assay were first lyophilized into powder and then suspended in the appropriate volume of perfluorocarbon (FC-72, Sigma) and sonicated for 1 minute to suspend. AmBisome should not be sonicated; instead, the fine powder was suspended by vortexing.
(§3) In all experiments, ASL pH of compound-treated epithelia was measured compared the results to vehicle-treated epithelia.
(§4) For apical AmB administration, cultured airway epithelia were incubated for 30 min-48 hrs at 37° C. before measurement of ASL pH. For AmB-cholesterol complex and C35deOAmB administration, cultured airway epithelia were incubated for 48 hrs at 37° C. before measurement of ASL pH. To test the effect of […] ATPase inhibition, AmB was administered 47 hours prior to 10 mM ouabain addition, and cultured airway epithelia were incubated for an additional 1 hr at 37° C. before measurement of ASL pH. For 10 μM ivacaftor/10 μM forskolin administration, cultured airway epithelia were incubated for 2 hrs at 37° C. before measurement of ASL pH (25). For basolateral AmB administration, a 2 mM stock of AmB in DMSO was diluted 1000-fold to a final concentration of 2 μM in USG media. The basolateral media of cultured airway epithelia was replaced with the AmB-containing USG media and incubated for 48 hrs at 37° C. before measurement of ASL pH.

In series [4] the test system is CuFi-1 (ΔF508/ΔF508) epithelia. Described as above. It is filed as cell-based, human. As to the method: as §1, §2, §3, §4
In series [5] the test system is non-CF primary cultured epithelia. As to the kind of experiment: ASL pH in non-CF primary cultured epithelia. It is filed as cell-based, human. The note with it: AmB 2 μM, 48 h. As to the method:
Airway epithelial cells were obtained from human trachea and bronchi of CF and non-CF specimens obtained from the Iowa Donor Network, either as post-mortem specimens or from tissue deemed not fit for transplant. Studies were approved by the University of Iowa Institutional Review Board. After pronase enzymatic digestion, cells were seeded onto collagen-coated semi-permeable membranes (0.33-1.12 cm^2, Corning 3470 polyester, 3460 polyester, 3413 polycarbonate) and grown at an air-liquid interface (52). Airway epithelial cell cultures were analyzed after they had differentiated and at least 14 days post-seeding.
as §1, with “pH. […]” for “pH. SNARF powder was suspended via sonication in perfluorocarbon (FC-72, Sigma) and distributed onto the apical surface.”, “pH. […]” for “pH.”
In all experiments, ASL pH of compound-treated epithelia was measured compared the results to vehicle-treated epithelia. […]

The test system of series [6] is ASL of primary CF epithelia; Staphylococcus aureus killed. The series is described as follows: ASL antibacterial activity (S. aureus-coated gold grids). It is filed as cell-based, human. The note with it: 2 μM, 48 h. As for the experimental part:
Staphylococcus aureus-coated gold grids were used to measure antibacterial activity of airway epithelial cultures (3, 4). Small diameter primary cultured epithelia were used for this experiment (0.33 cm^2). Bacteria-coated gold TEM grids were placed onto the apical surface of airway epithelia for 1 min after 48 hours of perfluorocarbon (FC-72, Sigma), 2 μM AmB, or 2 μM C35deOAmB treatment. As controls, bacteria-coated grids were also placed in saline or AmB in FC-72 laid over saline to simulate the administration method for 1 minute. After removal, bacteria on the grids were assessed for viability using Live/Dead BacLight Bacterial Viability assay (Invitrogen). Viability was determined in 4-6 fields to determine the percentages of dead bacteria.

“Also recorded” adds a separate entry of the source.

`C[C@@H]1[C@H](O)[C@@H](C)/C=C/C=C/C=C/C=C/C=C/C=C/C=C/[C@H](O[C@@H]2O[C@H](C)[C@@H](O)[C@H](N)[C@@H]2O)C[C@@H]2O[C@](O)(C[C@@H](O)C[C@@H](O)[C@H](O)CC[C@@H](O)C[C@@H](O)CC(=O)O[C@H]1C)C[C@H](O)[C@H]2C(=O)O` [AmB, amphotericin B]: in series [1], the “ASL viscosity (τASL/τsaline)” value is listed as “decreased ASL viscosity across a wide range of patient genotypes” and the “average magnitude of viscosity reduction” value was ~1.5 units. Moreover, the “cytotoxicity (LDH release, percent of total lysis by Triton X)” value in the series on CuFi-1 epithelia is recorded as “did not cause increased cytotoxicity as compared to vehicle”. Further, the “range of doses for which yeast growth rescue is observed” value in series [2] (AmB pre-complexed with ergosterol) is given as “extended by more than an order of magnitude”. The yeast growth rescue result in series [2] is “can restore growth in protein ion channel-deficient yeast; also recorded: restores potassium transport and thus growth in yeast missing the potassium-selective Trk transporters”. The “increase in ASL pH” value in series [3] (AmB 2 μM, ivacaftor/forskolin 10 μM) is ~0.2 unit. Further, the “ASL pH” value in series [3] (apical AmB 2 μM 48 h, ivacaftor/forskolin 10 μM 2 h) is “increase ASL pH; also recorded: increased the ASL pH; also recorded: increased ASL pH and H^14CO3^− secretion”. Moreover, in series [4] (AmB 2 μM basolateral, 48 h), the “ASL pH, basolateral addition of AmB” value was “an increase in ASL pH was not observed; also recorded: No increase in pH was observed; also recorded: did not raise ASL pH or increase H^14CO3^− secretion”. Also, the “ASL pH, apical addition” value in series [4] (AmB or C35deOAmB 2 μM, ivacaftor/forskolin 10 μM, 2 h, vs vehicle) is given as “increases ASL pH relative to an untreated CuFi-1 control over 2 hours; also recorded: progressive increase in pH over 2 hours; also recorded: increased the ASL pH; also recorded: increased both; also recorded: progressively increased ASL pH over 2 hours”. The “time for which the increase in ASL pH is sustained” value in series [4] (apical AmB 2 μM) was “at least 48 hours”. Further, in series [4] (apical addition), the “AmB concentration at which increase in ASL pH reaches a maximum” value turned out to be 2 μM. Also, the “concentration dependence of ASL pH increase” value in series [4] (increasing concentrations up to 100 μM AmB) was “increases ASL pH in CuFi-1 monolayers at low but not at high concentrations; also recorded: decreases at higher concentrations; also recorded: ASL pH increased and then fell with progressively increasing concentrations of AmB”. Further, the “ASL pH of non-CF primary epithelia” value in series [5] is “had no effect on the pH of non-CF primary cultured epithelia”. In addition, the “ASL antibacterial activity (% of S. aureus killed after exposure to ASL)” value in series [6] was “increased antibacterial activity for a diverse range of patient genotypes; also recorded: nearly doubled ASL bacterial killing; also recorded: restores ASL pH and antibacterial activity”.

The record behind these values is patent US12090164B2, “Genotype-agnostic rescue of cystic fibrosis with small molecule bicarbonate channels” (The Board of Trustees of the University of Illinois, priority 2017, dated 2024).
